# System: rice (Diamant variety)
# Assay: Rice seed treatment with BHMPA salts: germinating power
# Type: in vivo
# Conditions: for Length, root / Length, root, + % to control / Length, sprout / Length, sprout, + % to control / Mass, dry, root / Mass, dry, root, + % to control / Mass, dry, sprout / Mass, dry, sprout, + % to control / Mass, wet, root / Mass, wet, root, + % to control / Mass, wet, sprout / Mass, wet, sprout, + % to control: rice seed treatment; for optimum concentration for treating rice seeds before sowing / dry mass of the roots increased by / dry mass of the sprouts increased by / length of the root increased by / length of the sprout increased by / wet mass of the roots increased by / wet mass of the sprouts increased by: rice; for dry mass of the roots increased by / dry mass of the sprouts increased by / length of the root increased by / length of the sprout increased by / wet mass of the roots increased by / wet mass of the sprouts increased by: vs control
# Method in brief: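 Seeds (50 per Petri dish on two layers of filter paper) soaked 1 h in BHMPA or its Ca, Mg, Na, Co, Mn, Cu or Zn salts at 1·10^−6-1·10^−12%, with water controls. Germination energy read on day 4, germination on day 8 (wheat) or day 7 (rice, corn), as % means of four replicates. Germinating power taken as root and sprout length plus wet and dry mass per 100 seedlings.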
# [1] = comparison with Melaphen (Table XXXIII), solution 1 · 10^−9%
# [2] = experimental solution 1 · 10^−6%
# [3] = experimental solution 1 · 10^−7%
# [4] = experimental solution 1 · 10^−8%
# [5] = experimental solution 1 · 10^−9%
# [6] = experimental solution 1 · 10^−10%
# [7] = experimental solution 1 · 10^−11%
# [8] = experimental solution 1 · 10^−12%
# [9] = comparison with Melaphen (Table XXXIII), solution 1 · 10^−10%
compound,measurement,setting,value
"O=P([O-])(CO)CO.O=P([O-])(CO)CO.[Zn+2] [Zn-salt, Zinc BHMPA Salt]",optimum concentration for treating rice seeds before sowing,,1·10^−9%
same,"Length, root",[1],7.5 cm
same,"Length, root, + % to control",[1],56%
same,"Length, sprout",[1],4.8 cm
same,"Length, sprout, + % to control",[1],48%
same,"Mass, dry, root",[1],0.28 g/100 plantlings
same,"Mass, dry, root, + % to control",[1],33%
same,"Mass, dry, sprout",[1],0.32 g/100 plantlings
same,"Mass, dry, sprout, + % to control",[1],28%
same,"Mass, wet, root",[1],1.54 g/100 plantlings
same,"Mass, wet, root, + % to control",[1],57%
same,"Mass, wet, sprout",[1],2.57 g/100 plantlings
same,"Mass, wet, sprout, + % to control",[1],70%
same,"Length, root",[2],6.2 cm
same,"Length, root, + % to control",[2],15%
same,"Length, sprout",[2],2.6 cm
same,"Length, sprout, + % to control",[2],8%
same,"Mass, dry, root",[2],0.19 g/100 plantlings
same,"Mass, dry, root, + % to control",[2],12%
same,"Mass, dry, sprout",[2],0.23 g/100 plantlings
same,"Mass, dry, sprout, + % to control",[2],4.5%
same,"Mass, wet, root",[2],1.04 g/100 plantlings
same,"Mass, wet, root, + % to control",[2],24%
same,"Mass, wet, sprout",[2],1.81 g/100 plantlings
same,"Mass, wet, sprout, + % to control",[2],24%
same,"Length, root",[3],6.6 cm
same,"Length, root, + % to control",[3],22%
same,"Length, sprout",[3],2.8 cm
same,"Length, sprout, + % to control",[3],17%
same,"Mass, dry, root",[3],0.22 g/100 plantlings
same,"Mass, dry, root, + % to control",[3],29%
same,"Mass, dry, sprout",[3],0.27 g/100 plantlings
same,"Mass, dry, sprout, + % to control",[3],23%
same,"Mass, wet, root",[3],1.21 g/100 plantlings
same,"Mass, wet, root, + % to control",[3],44%
same,"Mass, wet, sprout",[3],2.10 g/100 plantlings
same,"Mass, wet, sprout, + % to control",[3],44%
same,"Length, root",[4],6.8 cm
same,"Length, root, + % to control",[4],26%
same,"Length, sprout",[4],3.1 cm
same,"Length, sprout, + % to control",[4],29%
same,"Mass, dry, root",[4],0.24 g/100 plantlings
same,"Mass, dry, root, + % to control",[4],41%
same,"Mass, dry, sprout",[4],0.28 g/100 plantlings
same,"Mass, dry, sprout, + % to control",[4],27%
same,"Mass, wet, root",[4],1.29 g/100 plantlings
same,"Mass, wet, root, + % to control",[4],53.5%
same,"Mass, wet, sprout",[4],2.27 g/100 plantlings
same,"Mass, wet, sprout, + % to control",[4],55%
same,"Length, root",[5],7.0 cm
same,"Length, root, + % to control",[5],30%
same,"Length, sprout",[5],3.6 cm
same,"Length, sprout, + % to control",[5],50%
same,"Mass, dry, root",[5],0.27 g/100 plantlings
same,"Mass, dry, root, + % to control",[5],59%
same,"Mass, dry, sprout",[5],0.33 g/100 plantlings
same,"Mass, dry, sprout, + % to control",[5],50%
same,"Mass, wet, root",[5],1.32 g/100 plantlings
same,"Mass, wet, root, + % to control",[5],57%
same,"Mass, wet, sprout",[5],2.31 g/100 plantlings
same,"Mass, wet, sprout, + % to control",[5],58%
same,"Length, root",[6],6.9 cm
same,"Length, root, + % to control",[6],28%
same,"Length, sprout",[6],3.2 cm
same,"Length, sprout, + % to control",[6],33%
same,"Mass, dry, root",[6],0.25 g/100 plantlings
same,"Mass, dry, root, + % to control",[6],47%
same,"Mass, dry, sprout",[6],0.31 g/100 plantlings
same,"Mass, dry, sprout, + % to control",[6],41%
same,"Mass, wet, root",[6],1.26 g/100 plantlings
same,"Mass, wet, root, + % to control",[6],50%
same,"Mass, wet, sprout",[6],2.17 g/100 plantlings
same,"Mass, wet, sprout, + % to control",[6],49%
same,"Length, root",[7],6.7 cm
same,"Length, root, + % to control",[7],24%
same,"Length, sprout",[7],2.8 cm
same,"Length, sprout, + % to control",[7],17%
same,"Mass, dry, root",[7],0.22 g/100 plantlings
same,"Mass, dry, root, + % to control",[7],29%
same,"Mass, dry, sprout",[7],0.29 g/100 plantlings
same,"Mass, dry, sprout, + % to control",[7],32%
same,"Mass, wet, root",[7],1.19 g/100 plantlings
same,"Mass, wet, root, + % to control",[7],42%
same,"Mass, wet, sprout",[7],2.09 g/100 plantlings
same,"Mass, wet, sprout, + % to control",[7],43%
same,"Length, root",[8],5.9 cm
same,"Length, root, + % to control",[8],9%
same,"Length, sprout",[8],2.7 cm
same,"Length, sprout, + % to control",[8],12.5%
same,"Mass, dry, root",[8],0.19 g/100 plantlings
same,"Mass, dry, root, + % to control",[8],12%
same,"Mass, dry, sprout",[8],0.25 g/100 plantlings
same,"Mass, dry, sprout, + % to control",[8],14%
same,"Mass, wet, root",[8],1.05 g/100 plantlings
same,"Mass, wet, root, + % to control",[8],25%
same,"Mass, wet, sprout",[8],1.70 g/100 plantlings
same,"Mass, wet, sprout, + % to control",[8],16%
same,dry mass of the roots increased by,1·10^−9% solution,59%
same,dry mass of the sprouts increased by,1·10^−9% solution,50%
same,length of the root increased by,1·10^−9% solution,30%
same,length of the sprout increased by,1·10^−9% solution,50%
same,wet mass of the roots increased by,1·10^−9% solution,57%
same,wet mass of the sprouts increased by,1·10^−9% solution,58%
Copper BHMPA Salt [Cu-salt],optimum concentration for treating rice seeds before sowing,,1·10^−10%
same,"Length, root",[9],6.3 cm
same,"Length, root, + % to control",[9],31%
same,"Length, sprout",[9],3.3 cm
same,"Length, sprout, + % to control",[9],27%
same,"Mass, dry, root",[9],0.26 g/100 plantlings
same,"Mass, dry, root, + % to control",[9],24%
same,"Mass, dry, sprout",[9],0.27 g/100 plantlings
same,"Mass, dry, sprout, + % to control",[9],8%
same,"Mass, wet, root",[9],1.35 g/100 plantlings
same,"Mass, wet, root, + % to control",[9],38%
same,"Mass, wet, sprout",[9],2.25 g/100 plantlings
same,"Mass, wet, sprout, + % to control",[9],49%
same,"Length, root",[2],5.4 cm
same,"Length, root, + % to control",[2],6%
same,"Length, sprout",[2],2.6 cm
same,"Length, sprout, + % to control",[2],8%
same,"Mass, dry, root",[2],0.19 g/100 plantlings
same,"Mass, dry, root, + % to control",[2],12%
same,"Mass, dry, sprout",[2],0.26 g/100 plantlings
same,"Mass, dry, sprout, + % to control",[2],13%
same,"Mass, wet, root",[2],0.93 g/100 plantlings
same,"Mass, wet, root, + % to control",[2],13%
same,"Mass, wet, sprout",[2],1.47 g/100 plantlings
same,"Mass, wet, sprout, + % to control",[2],6.5%
same,"Length, root",[3],5.5 cm
same,"Length, root, + % to control",[3],8%
same,"Length, sprout",[3],2.7 cm
same,"Length, sprout, + % to control",[3],12.5%
same,"Mass, dry, root",[3],0.21 g/100 plantlings
same,"Mass, dry, root, + % to control",[3],23.5%
same,"Mass, dry, sprout",[3],0.29 g/100 plantlings
same,"Mass, dry, sprout, + % to control",[3],26%
same,"Mass, wet, root",[3],1.03 g/100 plantlings
same,"Mass, wet, root, + % to control",[3],26%
same,"Mass, wet, sprout",[3],1.61 g/100 plantlings
same,"Mass, wet, sprout, + % to control",[3],17%
same,"Length, root",[4],5.7 cm
same,"Length, root, + % to control",[4],12%
same,"Length, sprout",[4],2.8 cm
same,"Length, sprout, + % to control",[4],17%
same,"Mass, dry, root",[4],0.23 g/100 plantlings
same,"Mass, dry, root, + % to control",[4],35%
same,"Mass, dry, sprout",[4],0.31 g/100 plantlings
same,"Mass, dry, sprout, + % to control",[4],35%
same,"Mass, wet, root",[4],1.09 g/100 plantlings
same,"Mass, wet, root, + % to control",[4],33%
same,"Mass, wet, sprout",[4],1.74 g/100 plantlings
same,"Mass, wet, sprout, + % to control",[4],26%
same,"Length, root",[5],5.9 cm
same,"Length, root, + % to control",[5],16%
same,"Length, sprout",[5],2.8 cm
same,"Length, sprout, + % to control",[5],17%
same,"Mass, dry, root",[5],0.25 g/100 plantlings
same,"Mass, dry, root, + % to control",[5],47%
same,"Mass, dry, sprout",[5],0.33 g/100 plantlings
same,"Mass, dry, sprout, + % to control",[5],43%
same,"Mass, wet, root",[5],1.16 g/100 plantlings
same,"Mass, wet, root, + % to control",[5],41%
same,"Mass, wet, sprout",[5],1.92 g/100 plantlings
same,"Mass, wet, sprout, + % to control",[5],39%
same,"Length, root",[6],6.0 cm
same,"Length, root, + % to control",[6],18%
same,"Length, sprout",[6],2.9 cm
same,"Length, sprout, + % to control",[6],21%
same,"Mass, dry, root",[6],0.27 g/100 plantlings
same,"Mass, dry, root, + % to control",[6],59%
same,"Mass, dry, sprout",[6],0.36 g/100 plantlings
same,"Mass, dry, sprout, + % to control",[6],56.5%
same,"Mass, wet, root",[6],1.22 g/100 plantlings
same,"Mass, wet, root, + % to control",[6],49%
same,"Mass, wet, sprout",[6],2.11 g/100 plantlings
same,"Mass, wet, sprout, + % to control",[6],53%
same,"Length, root",[7],5.9 cm
same,"Length, root, + % to control",[7],16%
same,"Length, sprout",[7],2.7 cm
same,"Length, sprout, + % to control",[7],12.5%
same,"Mass, dry, root",[7],0.24 g/100 plantlings
same,"Mass, dry, root, + % to control",[7],41%
same,"Mass, dry, sprout",[7],0.32 g/100 plantlings
same,"Mass, dry, sprout, + % to control",[7],39%
same,"Mass, wet, root",[7],1.12 g/100 plantlings
same,"Mass, wet, root, + % to control",[7],36.5%
same,"Mass, wet, sprout",[7],1.87 g/100 plantlings
same,"Mass, wet, sprout, + % to control",[7],35.5%
same,"Length, root",[8],5.6 cm
same,"Length, root, + % to control",[8],10%
same,"Length, sprout",[8],2.6 cm
same,"Length, sprout, + % to control",[8],8%
same,"Mass, dry, root",[8],0.20 g/100 plantlings
same,"Mass, dry, root, + % to control",[8],18%
same,"Mass, dry, sprout",[8],0.27 g/100 plantlings
same,"Mass, dry, sprout, + % to control",[8],17%
same,"Mass, wet, root",[8],1.01 g/100 plantlings
same,"Mass, wet, root, + % to control",[8],23%
same,"Mass, wet, sprout",[8],1.75 g/100 plantlings
same,"Mass, wet, sprout, + % to control",[8],27%
same,dry mass of the roots increased by,1·10^−10% solution,59%
same,dry mass of the sprouts increased by,1·10^−10% solution,56.5%
same,length of the root increased by,1·10^−10% solution,18%
same,length of the sprout increased by,1·10^−10% solution,21%
same,wet mass of the roots increased by,1·10^−10% solution,49%
same,wet mass of the sprouts increased by,1·10^−10% solution,53%

# — patent US10781224B2, “Bis(oxymethyl)phosphinic acid and biogenic metal salts thereof as regulators of plant growth and development” (priority 2016, dated 2020)
